Laboratory results as given in patent US20210379016A1, “THERAPEUTICS AND METHODS OF TREATMENT OF ANGIOTENSIN-CONVERTING ENZYME 2 ASSOCIATED CONDITIONS” (Board of Supervisors of Louisiana State University and …, priority 2020, published 2021).
Entries after “also recorded” stand apart in the source; their conditions may differ.

Legend:
Sigmar1 = Sigmar1 (Homo sapiens, UniProt Q99720); details: cited from earlier work; for Ki: read-out: binding affinity Ki for Sigmar1
[1] = system: ACE2 expression in HEK-293 cells; assay: ACE2 expression in HEK-293 cells treated with Sigmar1 ligands for 24 hours; type: cell-based; details: 24 hours treatment

Sigmar1, sequence (Q99720 whole entry, species assumed): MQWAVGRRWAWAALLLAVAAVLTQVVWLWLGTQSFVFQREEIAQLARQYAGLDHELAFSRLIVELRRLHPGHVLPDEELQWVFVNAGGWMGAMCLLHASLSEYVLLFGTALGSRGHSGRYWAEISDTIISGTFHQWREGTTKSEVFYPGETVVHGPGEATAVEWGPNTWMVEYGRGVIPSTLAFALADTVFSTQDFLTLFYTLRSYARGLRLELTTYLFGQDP

In the case of `c1ccc(CCN2CCCCC2)cc1` [AC927, 1-(2-phenylethyl) piperidine], the Ki (Sigmar1) is listed as 30 ± 2 nM.
In the case of `CN1CCN(CCc2ccc(Cl)c(Cl)c2)CC1` [BD1063, 1-[2-(3,4-dichlorophenyl)ethyl]-4-methylpiperazine], the Ki (Sigmar1) is listed as 9 ± 1 nM.
In the case of `CCN(CCc1ccc(Cl)c(Cl)c1)CCN1CCCC1` [BD1067, N-[2-(3,4-dichlorophenyl)ethyl]-N-ethyl-1-pyrrolidineethanamine], the Ki (Sigmar1) is given as 2 ± 0.5 nM.
In the case of `S=c1sc2ccccc2n1CCCCN1CCN(C2CCCCC2)CC1` [CM156, 3-(4-(4-cyclohexylpiperazin-1-yl)butyl) benzo [d]thiazole-2(3H)-thione], the “affinity for Sigmar1 (in words)” value (Sigmar1) is given as “nanomolar affinity”.
For `CCCN(CCC)CCc1ccc(OC)c(OCCc2ccccc2)c1` [NE-100, 4-methoxy-3-(2-phenylethoxy)-N,N-dipropylbenzeneethanamine], the ACE2 expression [1] was “significantly decreased the ACE2 expression; also recorded: decreases the ACE2 expression”.
For `COc1ccc(N2C[C@H](CN3CCC(O)(c4ccc5c(c4)OCO5)CC3)OC2=O)cc1` [Panamesine], the IC50 (Sigmar1) is listed as 6 nM.
In the case of `CN[C@H]1CC[C@@H](c2ccc(Cl)c(Cl)c2)c2ccccc21` [Sertraline], the ACE2 expression [1] is reported as “significantly decreased the ACE2 expression; also recorded: decreases the ACE2 expression”.
